From ChEMBL document CHEMBL6092189, “Synthesis of kanamycin-azole hybrids and investigation of their antifungal activities” (Bioorg Med Chem, 2024)
Values after ≈ are worked out from the molar mass of the structure shown. Active and inactive are the calls of the source. The rule behind the calls is not given here.

Assays:
Escherichia coli = assay: Antibacterial activity against Escherichia coli ATCC 25922 assessed as inhibition of bacterial growth incubated for 18 hrs by two-fold dilution method; type: functional
Cryptococcus neoformans [1] = assay: Antifungal activity against Cryptococcus neoformans H99 assessed as inhibition of fungal growth incubated for 48 hrs by two-fold dilution method; type: functional
Cryptococcus neoformans [2] = assay: Antifungal activity against Cryptococcus neoformans VR-54 assessed as inhibition of fungal growth incubated for 48 hrs by two-fold dilution assay; type: functional
Staphylococcus aureus = assay: Antibacterial activity against Staphylococcus aureus ATCC 25923 assessed as inhibition of bacterial growth incubated for 18 hrs by two-fold dilution method; type: functional
Candida albicans [3] = assay: Antifungal activity against azole-resistant Candida albicans 64124 assessed as inhibition of fungal growth incubated for 48 hrs by two-fold dilution method; type: functional
Candida tropicalis [4] = assay: Antifungal activity against Candida tropicalis 95-41 assessed as inhibition of fungal growth incubated for 48 hrs by two-fold dilution assay; type: functional
Diutina rugosa [5] = assay: Antifungal activity against Candida rugosa 95-967 assessed as inhibition of fungal growth incubated for 48 hrs by two-fold dilution assay; type: functional
Candida parapsilosis [6] = assay: Antifungal activity against azole-resistant Candida parapsilosis Cas08-0490 assessed as inhibition of fungal growth incubated for 48 hrs by two-fold dilution method; type: functional; conditions: Lodderomyces parapsilosis
Candida albicans [7] = assay: Antifungal activity against Candida albicans MYA2876 assessed as inhibition of fungal growth incubated for 48 hrs by two-fold dilution method; type: functional
[8] = Cytotoxicity against human HeLa cells assessed as reduction in cell viability incubated for 24 hrs by MTT assay; type: toxicity, cell-based
Cell membrane [9] = assay: Induction of membrane permeabilization in Candida albicans MYA2876 assessed as pore formation by measuring increase in fluorescence intensity at 1/4X MIC measured after 5 mins by SYTOX Green dye based fluorescence analysis
Cell membrane [10] = assay: Induction of membrane permeabilization in azole-resistant Candida parapsilosis Cas08-0490 assessed as pore formation by measuring fluorescence intensity at 256 ug/ml measured after 25 mins by SYTOX Green dye based fluorescence analysis; type: subcellular; conditions: dose 256.0 µg/ml
Cell membrane [11] = assay: Induction of membrane permeabilization in Candida albicans 64124 assessed as pore formation by measuring increase in fluorescence intensity at 1/4X MIC measured after 5 mins by SYTOX Green dye based fluorescence analysis
Cell membrane [12] = assay: Induction of membrane permeabilization in Candida rugosa 95-967 assessed as pore formation by measuring fluorescence intensity at 256 ug/ml measured after 25 mins by SYTOX Green dye based fluorescence analysis; type: subcellular; conditions: Diutina rugosa, dose 256.0 µg/ml
Candida tropicalis [13] = assay: Antifungal activity against Candida tropicalis 95-41 assessed as fractional inhibitory concentration index incubated for 48 hrs in presence of kanamycin by microdilution checkerboard assay; type: functional
Cryptococcus neoformans [14] = assay: Antifungal activity against Cryptococcus neoformans H99 assessed as fractional inhibitory concentration index incubated for 48 hrs in presence of kanamycin by microdilution checkerboard assay; type: functional
Cryptococcus neoformans [15] = assay: Antifungal activity against Cryptococcus neoformans VR-54 assessed as fractional inhibitory concentration index incubated for 48 hrs in presence of kanamycin by microdilution checkerboard assay; type: functional
Candida albicans [16] = assay: Antifungal activity against Candida albicans MYA2876 assessed as fractional inhibitory concentration index incubated for 48 hrs in presence of kanamycin by microdilution checkerboard assay; type: functional
Diutina rugosa [17] = assay: Antifungal activity against Candida rugosa 95-967 assessed as fractional inhibitory concentration index incubated for 48 hrs in presence of kanamycin by microdilution checkerboard assay; type: functional
Candida albicans [18] = assay: Antifungal activity against azole-resistant Candida albicans 64124 assessed as fractional inhibitory concentration index incubated for 48 hrs in presence of kanamycin by microdilution checkerboard assay; type: functional
Candida parapsilosis [19] = assay: Antifungal activity against azole-resistant Candida parapsilosis Cas08-0490 assessed as fractional inhibitory concentration index incubated for 48 hrs in presence of kanamycin by microdilution checkerboard assay; type: functional

Compound | MIC (Escherichia coli) [µg/mL] | MIC (Cryptococcus neoformans [1]) [µg/mL] | MIC (Cryptococcus neoformans [2]) [µg/mL] | MIC (Staphylococcus aureus) [µg/mL] | MIC (Candida albicans [3]) [µg/mL] | MIC (Candida tropicalis [4]) [µg/mL] | MIC (Diutina rugosa [5]) [µg/mL] | MIC (Candida parapsilosis [6]) [µg/mL] | MIC (Candida albicans [7]) [µg/mL] | IC50 at 24 h [8] [µg/mL] | other results
Cl.Cl.Cl.Cl.NC[C@H]1O[C@H](O[C@H]2[C@H](O)[C@@H](O[C@H]3O[C@H](Cn4cc(COC(Cn5ccnc5)c5ccc(F)cc5F)nn4)[C@@H](O)[C@H](N)[C@H]3O)[C@H](N)C[C@@H]2N)[C@H](O)[C@@H](O)[C@@H]1O (stereo partly drawn) | 64 | 64 | 128 | 64 | 128 | 8 | ≥ 256 | ≥ 256 | 128 | > 100 | –
NC[C@H]1O[C@H](O[C@H]2[C@H](O)[C@@H](O[C@H]3O[C@H](CO)[C@@H](O)[C@H](N)[C@H]3O)[C@H](N)C[C@@H]2N)[C@H](O)[C@@H](O)[C@@H]1O [KANAMYCIN] | 4 (≈ 8.26 µM) | 128 (≈ 264 µM) | ≥ 256 | 1 (≈ 2.06 µM) | ≥ 256 | ≥ 256 | ≥ 256 | ≥ 256 | ≥ 256 | – | –
Cl.Cl.Cl.Cl.NC[C@H]1O[C@H](O[C@H]2[C@H](O)[C@@H](O[C@H]3O[C@H](Cn4cc(COC(Cn5cncn5)c5ccc(F)cc5F)nn4)[C@@H](O)[C@H](N)[C@H]3O)[C@H](N)C[C@@H]2N)[C@H](O)[C@@H](O)[C@@H]1O (stereo partly drawn) | ≥ 256 | ≥ 256 | ≥ 256 | ≥ 256 | ≥ 256 | ≥ 256 | ≥ 256 | ≥ 256 | ≥ 256 | > 100 | –
Cl.Cl.Cl.Cl.NC[C@H]1O[C@H](O[C@H]2[C@H](O)[C@@H](O[C@H]3O[C@H](Cn4cc(COC(Cn5ccnc5)c5ccc(Cl)cc5Cl)nn4)[C@@H](O)[C@H](N)[C@H]3O)[C@H](N)C[C@@H]2N)[C@H](O)[C@@H](O)[C@@H]1O (stereo partly drawn) | ≥ 256 | 64 | 64 | 128 | 32 | 64 | ≥ 256 | ≥ 256 | 128 | > 100 | Activity (Cell membrane [9]): Active; Activity (Cell membrane [10]): inactive; Activity (Cell membrane [11]): Active; Activity (Cell membrane [12]): inactive
Cl.Cl.Cl.Cl.NC[C@H]1O[C@H](O[C@H]2[C@H](O)[C@@H](O[C@H]3O[C@H](Cn4cc(CNC(=O)c5ccccc5Cl)nn4)[C@@H](O)[C@H](N)[C@H]3O)[C@H](N)C[C@@H]2N)[C@H](O)[C@@H](O)[C@@H]1O | 128 | 64 | ≥ 256 | ≥ 256 | ≥ 256 | ≥ 256 | ≥ 256 | ≥ 256 | ≥ 256 | > 100 | –
Cl.Cl.Cl.Cl.NC[C@H]1O[C@H](O[C@H]2[C@H](O)[C@@H](O[C@H]3O[C@H](Cn4cc(COC(Cn5cncn5)c5ccc(Cl)cc5Cl)nn4)[C@@H](O)[C@H](N)[C@H]3O)[C@H](N)C[C@@H]2N)[C@H](O)[C@@H](O)[C@@H]1O (stereo partly drawn) | ≥ 256 | 16 | 32 | 128 | 16 | 32 | ≥ 256 | ≥ 256 | 16 | > 100 | Activity (Cell membrane [9]): Active; Activity (Cell membrane [10]): inactive; Activity (Cell membrane [11]): Active; Activity (Cell membrane [12]): inactive
Cl.Cl.Cl.Cl.NC[C@H]1O[C@H](O[C@H]2[C@H](O)[C@@H](O[C@H]3O[C@H](Cn4cc(CNC(=O)c5ccc(Cl)cc5)nn4)[C@@H](O)[C@H](N)[C@H]3O)[C@H](N)C[C@@H]2N)[C@H](O)[C@@H](O)[C@@H]1O | 128 | 128 | ≥ 256 | 64 | ≥ 256 | ≥ 256 | ≥ 256 | ≥ 256 | ≥ 256 | > 100 | –
Cl.Cl.Cl.Cl.NC[C@H]1O[C@H](O[C@H]2[C@H](O)[C@@H](O[C@H]3O[C@H](Cn4cc(CNC(=O)c5ccc(Cl)cc5Cl)nn4)[C@@H](O)[C@H](N)[C@H]3O)[C@H](N)C[C@@H]2N)[C@H](O)[C@@H](O)[C@@H]1O | 128 | ≥ 256 | ≥ 256 | 128 | ≥ 256 | ≥ 256 | ≥ 256 | ≥ 256 | ≥ 256 | > 100 | –
OC(Cn1cncn1)(Cn1cncn1)c1ccc(F)cc1F [FLUCONAZOLE] | – | 1 (≈ 3.27 µM) | 1 (≈ 3.27 µM) | – | ≥ 256 | 2 (≈ 6.53 µM) | 8 (≈ 26.1 µM) | 16 (≈ 52.2 µM) | 128 (≈ 418 µM) | – | –
OC(Cn1cncn1)c1ccc(Cl)cc1Cl (stereo not drawn) | – | 64 (≈ 248 µM) | 32 (≈ 124 µM) | – | 128 (≈ 496 µM) | 32 (≈ 124 µM) | 64 (≈ 248 µM) | 64 (≈ 248 µM) | 64 (≈ 248 µM) | – | fractional inhibitory concentration index (FICI) (Candida tropicalis [13]): 1.5; fractional inhibitory concentration index (FICI) (Cryptococcus neoformans [14]): 1; fractional inhibitory concentration index (FICI) (Cryptococcus neoformans [15]): 1; fractional inhibitory concentration index (FICI) (Candida albicans [16]): 1; fractional inhibitory concentration index (FICI) (Diutina rugosa [17]): 2.25; fractional inhibitory concentration index (FICI) (Candida albicans [18]): 1; fractional inhibitory concentration index (FICI) (Candida parapsilosis [19]): 2
